Reference: patent US8470311B2, “Therapeutic agent for anaerobic diseases” (priority 2008, dated 2013)
“Also recorded” adds a separate entry of the source.

Tests used:
[1] = system: Human breast cancer cell line KPL-1; test: Tumor growth suppression by B. longum Re-105A/pBifiCD, 5-FC and maltose or lactulose, KPL-1 tumor-bearing nude mice; assay type: in vivo, nude mouse
[2] = system: Human stomach cancer cell line MKN45; test: Tumor growth suppression by B. longum Re-105A/pBifiCD, 5-FC and maltose, MKN45 tumor-bearing nude rats; assay type: in vivo, nude rat; conditions: maltose 200 mg/body/day ip with bacteria and 5-FC
[3] = system: Human breast cancer cell line KPL-1; conditions: 10% maltose ip versus saline

Compound | Mice died during test ([1]; Group C: bacteria, 5-FC, 20% (w/v) lactulose 1 mL ip once a day, deaths Day 13 and Day 19) | Effect of lactulose, conclusion of the test ([1]; lactulose 200 mg/day ip with bacteria and 5-FC) | Effect of maltose, conclusion of the test [2] | Effect of maltose on colonization and proliferation in tumor tissue [3]
OC[C@H]1O[C@@H](O[C@@H]2[C@@H](CO)OC(O)(CO)[C@H]2O)[C@H](O)[C@@H](O)[C@H]1O (mixture of isomers) [lactulose] | two mice had died during the administration period | can enhance the antitumor effect of B. longum Re-105A/pBifiCD | – | –
OC[C@H]1O[C@H](O[C@H]2[C@H](O)[C@@H](O)[C@H](O)O[C@@H]2CO)[C@H](O)[C@@H](O)[C@@H]1O [Maltose] | – | – | effect in promoting specific colonization of B. longum Re-105A/pBifiCD in tumor tissue, and an effect in promoting proliferation and an effect in maintaining proliferation in tumor tissue | effect in promoting specific colonization of B. longum Re-105A/pBifiCD in tumor tissue; also recorded: effect in promoting the proliferation and an effect of maintaining the proliferation of B. longum Re-105A/pBifiCD in tumor tissue
